Data published in PMC10975012, “The Active Glucuronide Metabolite of the Brain Protectant IMM-H004 with Poor Blood–Brain Barrier Permeability Demonstrates a High Partition in the Rat Brain via Multiple Mechanisms” (Pharmaceutics, 2024).

Key:
[1] = In vivo metabolism of IMM-H004 in rat brain after intracerebroventricular injection; settings: for detection in brain regions: 6–60 min after icv injection of IMM-H004 3.8 μg/kg
Description: The metabolism of IMM-H004 in the brain was investigated through the intracerebroventricular (icv) injection of IMM-H004 in rats, and the drug concentration in each brain region was analyzed. The rats were fixed on a benchmark stereotactic instrument (Leica Biosystems, Deer Park, IL, USA) under isoflurane anesthesia. Using a microinjector connected to a syringe pump, a 5 μL solution of IMM-H004 was dissolved in artificial cerebrospinal fluid (ACSF) and injected (3.8 μg/kg) into the lateral ventricle. The injection coordinates were as follows: medial/lateral = 1.5 mm; anterior/posterior = −0.8 mm; dorsal/ventral = −4 mm. Animals were sacrificed at 6, 15, 30, 45, and 60 min after drug administration. The brains were collected and dissected on ice into the following regions: the cerebellum, brainstem, hypothalamus, hippocampus, midbrain, striatum, and cortex. The subsequent procedure for processing tissue samples was the same as the procedure described in Section 2.3.1.

[2] = Plasma protein binding, rapid equilibrium dialysis; assay type: in vitro ADME; settings: rat, 0.5–10 μg/mL, RED, 37 °C, read-out: unbound fraction (fu) in rat plasma
Description: The rat plasma protein binding of IMM-H004 and IMM-H004G (0.5–10 μg/mL) was investigated using a rapid equilibrium dialysis (RED) assay. The RED plate inserts utilized in this assay contained a dialysis membrane with a molecular weight cut-off of 8 kDa (Thermo Fisher Scientific, Waltham, MA, USA). For the assay, aliquots of plasma (0.2 mL) and phosphate-buffered saline (0.35 mL) were added to the sample chamber and buffer chamber, respectively. The plate was then sealed and incubated at 37 °C, 200 rpm for 4 h. Following the dialysis period, the concentrations of IMM-H004 and IMM-H004G were determined using LC-MS/MS. The ratio of the drug concentration in the buffer to that in the plasma chamber was used to calculate the unbound fraction (fu) of the drugs.

OATP1B1 = target: T1, OATP1B1 (Homo sapiens, UniProt Q9Y6L6); assay: Uptake in MDCKⅡ-OATP1B1 cells; assay type: cell-based; settings: MDCKⅡ-OATP1B1, 30, 60 µmol/L, 20 or 40 min
T1 construct: expressed in transfected cells; host or cells: MDCKII
T1 sequence (Q9Y6L6 1-691): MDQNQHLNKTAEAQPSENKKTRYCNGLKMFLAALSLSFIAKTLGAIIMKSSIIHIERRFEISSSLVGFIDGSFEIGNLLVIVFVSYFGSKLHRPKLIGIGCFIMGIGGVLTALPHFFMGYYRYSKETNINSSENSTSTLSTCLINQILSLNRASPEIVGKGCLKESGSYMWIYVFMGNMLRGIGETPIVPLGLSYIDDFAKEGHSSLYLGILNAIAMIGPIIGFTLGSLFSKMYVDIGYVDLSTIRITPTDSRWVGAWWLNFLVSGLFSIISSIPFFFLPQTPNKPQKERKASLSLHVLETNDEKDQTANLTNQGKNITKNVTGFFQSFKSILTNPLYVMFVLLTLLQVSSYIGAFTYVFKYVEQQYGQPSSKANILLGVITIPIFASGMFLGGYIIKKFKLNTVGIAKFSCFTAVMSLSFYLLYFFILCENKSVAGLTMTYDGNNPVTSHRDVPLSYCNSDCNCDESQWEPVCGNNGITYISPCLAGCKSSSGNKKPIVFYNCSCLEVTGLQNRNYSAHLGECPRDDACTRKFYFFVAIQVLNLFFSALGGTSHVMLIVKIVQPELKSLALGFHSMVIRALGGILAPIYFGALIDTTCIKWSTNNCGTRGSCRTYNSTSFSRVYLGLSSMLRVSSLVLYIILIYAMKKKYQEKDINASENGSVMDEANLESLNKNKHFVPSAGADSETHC
Description: Figure S4 Uptake of IMM-H004G in MDCKⅡ-OATP1B1 and MDCKⅡ-OATP1B3 cells. (a)
RSV (rosuvastatin, 30 µmol/L) is used as a positive group in MDCKⅡ-OATP1B1 cells. (b)
E17βG (estradiol-17β-glucuronide, 5 µmol/L) is used as a positive group in
MDCKⅡ-OATP1B3 cells. (c) IMM-H004G (30, 60 µmol/L) was incubated with
MDCKⅡ-OATP1B1 and MDCKⅡ-OATP1B3 cells for 20 or 40 min. The OATP
pan-inhibitor CsA (cyclosporin A) is 10 µmol/L. n=3 for positive substrates, and n=2 for
IMM-H004G. ***p < 0.001, **p < 0.01, *p < 0.05 vs. control group. ns, not significant.
(1 picture or pasted object on this page, not shown here)

[3] = In vitro metabolism in rat brain homogenate; assay type: in vitro ADME
Description: Rat brains were homogenized in chilled saline (1:3, w/v) on ice to obtain the brain homogenate. The incubation mixtures composed of the brain homogenate (2 mg protein/mL), alamethicin (50 μg/mg protein), IMM-H004 (10 μmol/L), and UDPGA (5 mmol/L) in a final volume of 0.2 mL of Tris-HCl buffer (50 mmol/L, pH 7.4) containing 5 mmol/L of MgCl2. Before initiating the reaction, the brain homogenate was preincubated with alamethicin on ice for 15 min. Subsequently, IMM-H004 and UDPGA were added to initiate the reaction. After incubating at 37 °C for 60 min, the reaction was quenched by adding two volumes of acetonitrile containing IS (0.1 μg/mL). On the other hand, IMM-H004G (1 μmol/L) was incubated with the brain homogenate (2 mg protein/mL) for up to 4 h. The concentrations of IMM-H004 and IMM-H004G were determined by LC-MS/MS.

| SMILES | detection in brain regions [1] | Kp ([1]; hypothalamus and plasma, icv or intrathecal, 3.8 ug/kg, after icv injection of IMM-H004 3.8 μg/kg, read-out: hypothalamus-to-plasma AUC ratio) | fraction unbound at 4 h [2] | uptake increase in OATP1B1-overexpressing cells compared to control cells (OATP1B1) | stability of IMM-H004G (change in concentration) ([3]; 1 μmol/L, rat brain homogenate 2 mg/mL protein, 4 h) | formation of IMM-H004G ([3]; IMM-H004 10 μmol/L, rat brain homogenate, 1 h) |
| --- | --- | --- | --- | --- | --- | --- |
| COc1cc(OC2OC(C(=O)O)C(O)C(O)C2O)cc2oc(=O)c(N3CCN(C)CC3)c(C)c12 (centres unmarked) [IMM-H004G] | only detected at lower concentrations in the hypothalamus | 3.13 | 0.315 ± 0.008 | did not exceed a tenfold increase | did not result in a reduction in its concentration |  |
| COc1cc(O)cc2oc(=O)c(N3CCN(C)CC3)c(C)c12 [IMM-H004] | detected in all brain regions |  | 0.025 ± 0.002 |  |  | time-dependent |
